Tests used:
[1] = tested on: brain amyloid peptides Aβ1-x; test: Rat Brain Aβ Lowering Assay (Assay 5); assay type: in vivo; settings: 3 hrs after dosing
Description: Rat Brain Aβ Lowering Assay (Assay 5)
The animals were sacrificed 3 hrs after dosing, and brains were excised, dissected into cerebellum and left and right cerebra and flash-frozen in liquid nitrogen.
The cerebrum was homogenized (5 volumes per weight) in 20 mM Tris-HCL, pH 8.5, 0.2% Triton-X100 supplemented with protease inhibitors (complete, Roche Applied Science) at 4° C. using a glass Dounce homogenizer. The homogenate was centrifuged at 120,000×g for 60 min at 4° C., and the supernatant was collected and analyzed for Ab1-x using immunoassay with chemiluminescent detection (Meso-Scale Discovery, Rockville, Md. (MSD)).
Streptavidin 96-well plates (MSD) were pre-blocked with 5% Blocker A solution (MSD) for 1 hr at rt on an orbital shaker and washed 4 times with phosphate buffered saline (PBS). The wells were pre-coated with 20 ng/well of biotinylated antibody SIG-39155 (Clone M3.2, specific for amino acids 10-15 of the rodent Aβ) for 1 hr at rt and washed 4 times with PBS. For Aβ1-x analysis, 25 μl of either the cleared brain lysates or Aβ1-40 standards (8-500 pg/ml, with 2× increment) were incubated for 1 hr at rt with constant shaking. The wells were washed 4 times with PBS, and 25 μl of the detection antibody (Sulfo-TAG labeled anti-Aβ40 antibody supplied by MSD) was added and incubated for 1 hr at rt. After 4 washes with PBS, 150 μl of the chemiluminescence detection reagent (Read Buffer T, MSD) was added, and the plate was read on an MSD Sector Imager 6000 instrument. The calibration curve was fit into a non-linear four-parameter regression model, and the Aβ1-x concentrations were calculated for each well containing the cleared brain lysates. The percent of Aβ lowering was calculated based on the difference with the average Aβ concentration obtained for the brains from the animals treated with vehicle alone.

[2] = In Vitro Phospholipidosis Assay (Assay 4), Nile red staining; assay type: cell-based; settings: human, first effect concentration, U937 cells, read-out: Phospholipidosis FEC IC50 μM (assay 4)
Description: In Vitro Phospholipidosis Assay (Assay 4)
The phospholipidogenic potential of test compounds was assayed using the human hematopoetic U937 cell line. The test principle was to analyze the phospholipid content by staining the cells with the fluorescent dye Nile red.
U937 cells were seeded into cell culture plates at 0.5×10^6 cells/mL in RPMI medium containing 10% FBS, 1% DMSO, and 0.005% gentamicin. The cells were then cultivated with or without different concentrations of test compounds for 48 h under standard culture conditions.
For harvesting the cells were centrifuged at 130×g for 4 min and washed once with PBS. Then 2×0.5 mL cell suspension was prepared for non-fixed cell measurement (0.5 mL for propidium iodide (PI) viability measurement and 0.5 mL for Nile red measurement).
The remaining cells were fixed with 3.7% formaldehyde for 30 min. After a further centrifugation step cells were resuspended with 1.3 mL Nile red working solution (1 μg/mL) and incubated for 5 min at rt. The cell suspension was then washed twice with 3 mL PBS and centrifuged with 130×g for 4 min. The supernatant was discarded and the cells were resuspended with 0.5 mL PBS and kept for flow cytometry measurement. For Nile red staining of the 0.5 mL non-fixed cell samples, 50 μL of a ready to use Nile red solution (10 μg/mL) were added per sample. Samples were kept on ice for 5 min. Thereafter, they were washed once with 4 mL PBS (4° C., 250×g for 8 min) and finally resuspended in 400 μL PBS and kept for flow cytometry measurement.
For the viability measurement, 12.5 μL of the ready to use PI solution (10 μg/mL) were added to the 0.5 mL non-fixed cell suspension. After 15 min of incubation on ice, the samples were measured by flow cytometry using a Coulter Epics XL/MCL flow cytometer.
The viability of the cells of each sample was determined by flow cytometry measurement of the PI content at channel 2 (568-590 nm). Cut-off gates for the fluorescence-dependent differentiation between live and dead cells were defined based on the analysis of cell culture medium control samples.
Only samples with a cell viability of >=90% relative to control samples were analyzed for phospholipidosis. For that, each Nile red sample (non-fixed and fixed samples) was measured by flow cytometry at channel 1 (504-541 nm) and channel 4 (660-680 nm).
For each channel, relative Nile red fluorescence intensity of a test sample was calculated compared to control samples and expressed as percentage of control fluorescence intensity. The assessment of the phospholipidogenic potential and the first effect concentration (FEC) of a test compound was done manually based on the fluorescence intensities at both wavelengths for the fixed cells as well as for the non-fixed cells.

[3] = tested on: production of Abeta1-x peptides in H4 neuroglioma cell line stably expressing human APP; test: H4-APPwt Cell-Based Assay (Assay 2), Abeta1-x production; settings: H4 neuroglioma cells expressing human APP, Abeta1-x; read-out: H4-APPwt cell IC50 nM (assay 2)
Description: H4-APPwt Cell-Based Assay (Assay 2)
Cellular potency of the compounds of the invention was assessed in an assay monitoring production of Abeta1-x peptides in the H4 neuroglioma cell line (ATCC, Cat. #HTB-148) stably expressing human APP, using an immunoassay such as AlphaLISA (PerkinElmer, Cat.# AL288). Tested compounds were dissolved in DMSO and pre-diluted in the culture medium (DMEM containing 10% FBS and 1% penicillin/streptomycin) to achieve twice the final concentration of the compounds in the assay. Equal volumes of the 2× solutions of the tested compounds and cell suspension were added to a 96-well culture plate, so that each well contained ˜10,000 cells in a final volume of 200 μl. Final concentration of DMSO in the assay was 0.2%. The plates were incubated for 5 hrs at 37° C., 5% CO2 to allow cells to attach to the bottom of the wells in the presence of the tested compounds. Then the media was removed and replaced with fresh media containing tested compounds at the same final concentration. The plates were incubated for 18 hrs at 37° C., 5% CO2. Concentrations of Ab1-x were determined using AlphaLISA immunoassay (PerkinElmer, Cat.# AL288) following manufacturer's protocol. Concentrations of Abeta1-x in the wells containing either DMSO or 10 μM beta-secretase inhibitor (BACE inhibitor IV, EMD Bioscience, Cat. #565788) were used as uninhibited and background controls, correspondingly, for calculating percent inhibition values for each well with the tested compounds.

hERG = hERG (Homo sapiens (Human), UniProt Q12809); test: hERG-Channel Assay (Assay 3), whole-cell patch clamp; assay type: cell-based; settings: human, HEK293 cells stably transfected with hERG, pH 7.4; 10 μM, HEK293 cells transfected with hERG
hERG, sequence (Q12809 whole entry): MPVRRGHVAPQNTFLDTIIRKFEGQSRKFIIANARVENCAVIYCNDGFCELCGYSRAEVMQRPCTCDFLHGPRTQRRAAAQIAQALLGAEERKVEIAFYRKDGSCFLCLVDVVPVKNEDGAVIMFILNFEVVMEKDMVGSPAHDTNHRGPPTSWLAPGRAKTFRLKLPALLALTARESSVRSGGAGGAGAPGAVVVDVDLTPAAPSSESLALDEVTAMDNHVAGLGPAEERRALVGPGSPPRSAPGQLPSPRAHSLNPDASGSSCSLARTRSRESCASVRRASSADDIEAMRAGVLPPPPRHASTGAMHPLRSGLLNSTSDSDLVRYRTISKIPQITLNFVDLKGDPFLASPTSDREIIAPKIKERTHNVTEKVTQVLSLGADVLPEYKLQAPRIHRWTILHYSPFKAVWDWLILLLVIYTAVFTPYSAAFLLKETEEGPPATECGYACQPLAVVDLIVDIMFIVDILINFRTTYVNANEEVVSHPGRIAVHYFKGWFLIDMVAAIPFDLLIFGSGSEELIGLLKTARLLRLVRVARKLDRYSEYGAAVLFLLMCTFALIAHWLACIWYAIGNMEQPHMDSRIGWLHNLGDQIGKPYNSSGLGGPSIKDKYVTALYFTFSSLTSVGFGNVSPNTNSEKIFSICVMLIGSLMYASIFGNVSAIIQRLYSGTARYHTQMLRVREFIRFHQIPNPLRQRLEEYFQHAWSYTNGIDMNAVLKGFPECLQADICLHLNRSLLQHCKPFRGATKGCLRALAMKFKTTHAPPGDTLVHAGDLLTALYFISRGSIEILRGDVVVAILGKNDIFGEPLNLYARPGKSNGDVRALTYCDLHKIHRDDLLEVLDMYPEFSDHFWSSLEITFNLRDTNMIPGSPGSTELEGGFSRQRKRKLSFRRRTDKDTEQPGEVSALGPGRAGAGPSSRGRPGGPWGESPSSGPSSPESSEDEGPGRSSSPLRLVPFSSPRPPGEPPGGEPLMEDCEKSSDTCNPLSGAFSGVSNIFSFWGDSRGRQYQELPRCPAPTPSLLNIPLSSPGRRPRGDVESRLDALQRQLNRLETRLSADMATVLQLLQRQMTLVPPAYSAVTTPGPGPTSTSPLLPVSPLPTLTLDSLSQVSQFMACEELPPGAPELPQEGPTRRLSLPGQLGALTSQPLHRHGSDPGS
Excerpt: hERG-Channel Assay (Assay 3)
HEK (human embryonic kidney) 293 cells were stably transfected with hERG cDNA.
Cells were superfused with a bath solution containing (mM): NaCl (137), KCl (4.0), MgCl2 (1.0), CaCl2 (1.8), Glucose (10), HEPES (10), pH 7.4 with NaOH. Patch pipettes were made from borosilicate glass tubing using a horizontal puller and filled with pipette solution containing (mM): K-aspartate (130), MgCl2 (5.0), EGTA (5.0), K2ATP (4.0), HEPES (10.0), pH 7.2 with KOH. Resistance of the microelectrodes was in the range between 2 and 5 MΩ.
Membrane currents were recorded using an EPC-10 patch clamp amplifier and PatchMaster software. hERG-mediated membrane currents were recorded at 35° C., using the whole-cell configuration of the patch-clamp technique. Transfected HEK293 cells were clamped at a holding potential of −60 mV and hERG-mediated inactivating tail currents were elicited using a pulse pattern with fixed amplitudes (activation/inactivation: 40 mV for 2000 ms; recovery: −120 mV for 2 ms; ramp to 40 mV in 2 ms; inactivating tail current: 40 mV for 50 ms) repeated at 15 s intervals. During each inter-pulse interval 4 pulses scaled down by a factor of 0.2 were recorded for a P/n leak subtraction procedure. Rs compensation was employed up to a level that safely allowed recording devoid of ringing.
The different concentrations of the test compound were applied sequentially on each of the different cells investigated. A steady state level of baseline current was measured for at least 6 sweeps prior to the application of the first test compound concentration.
The test compound was dissolved in DMSO to yield a master stock solution which was diluted further in DMSO to stock solutions needed for the lower concentrations. Final dilutions in extracellular buffer were prepared freshly from these stocks by a 1:1000 dilution step each before starting the experiments.
Peak current amplitudes were measured 3 ms after the ramp to +40 mV. For baseline and each concentration the peak currents of the three last sweeps before application of the next concentration were averaged. Residual currents (I/I0) were calculated for each cell as the fraction of actual average peak current and average baseline peak current. Results are presented as percent (%) inhibition (1−I/I0)*100% at 10 μM.

SMILES | % Aβ Reduction ([1]; single oral dose 50 mg/kg) [%] | IC50 at 48 h [2] [µM] | IC50 [3] [nM] | inhibition at 10 µM (hERG) [%] | % Aβ Reduction ([1]; single oral dose 25 mg/kg) [%] | % Aβ Reduction ([1]; single oral dose 12.5 mg/kg) [%]
CO[C@H]1CC[C@@]2(Cc3ccc(C#N)cc3[C@]23N=C(N)N(Cc2ncccn2)C3=O)C[C@@H]1C [Example 6] | 60 | 200 | 1.24 | 35 | – | –
CO[C@H]1[C@H](C)C[C@@]2(Cc3ccc(C#N)cc3[C@]23N=C(N)N(CC2(C)OCCO2)C3=O)C[C@@H]1C [Example 20] | – | > 400 | 0.28 | 8 | 73 | –
CC[C@@H]1C[C@]2(CC[C@H]1OC)Cc1ccc(C#N)cc1[C@]21N=C(N)N(C[C@H]2COCCO2)C1=O [Example 28] | – | 400 | 0.5 | 9 | – | 30
CO[C@H]1[C@H](C)C[C@@]2(Cc3ccc(F)cc3[C@]23N=C(N)N(CC2(C)OCCO2)C3=O)C[C@@H]1C [Example 29] | – | 200 | 0.3 | 7 | 78 | –
